Values quoted from earlier work, collected in article PMC10590117 (International Journal of Nanomedicine, 2023).

Settings: humans

For `COc1cc(/C=C/C(=O)CC(=O)/C=C/c2ccc(O)c(OC)c2)ccc1O` [curcumin, Curcumin], the Peroral bioavailability is given as roughly 1%.
